System: cytokine, chemokine and IFN stimulated gene expression in 786-0 cells
Format: cell-based, human

## Sodium orthovanadate
  CXCL9 mRNA up-regulation: more than 100,000 fold
  IFNβ mRNA up-regulation: more than 10 fold
  IFNγ expression: not up-regulated at any time-point post infection under any condition tested
  MX2 and IFITM1 mRNA: robustly downregulated as early as 8 h post-infection
  expression of proinflammatory cytokines (CCL8, CCL3, IL6, TNF, IFNβ, CCL5) and type II IFN induced genes (CXCL9, CXCL10, CXCL11): increased expression of a number of proinflammatory cytokines
  genes typically induced by Type I IFN: either unaffected or decreased

Reference: US11517598B2 (priority 2016, dated 2022)
